# According to patent US20230391776A1, “AMIDE OXAZOLE COMPOUND” (MEDSHINE DISCOVERY INC., priority 2020, published 2023):
# How the values were obtained:
# human IRAK4 = biological target: T1, human IRAK4 (Homo sapiens, UniProt Q9NWZ3); test: In vitro IRAK4 kinase activity, 33P isotope-labeled kinase assay; format: biochemical
# T1 construct: purchased Reaction Biology Corp
# T1 sequence (Q9NWZ3 1-460): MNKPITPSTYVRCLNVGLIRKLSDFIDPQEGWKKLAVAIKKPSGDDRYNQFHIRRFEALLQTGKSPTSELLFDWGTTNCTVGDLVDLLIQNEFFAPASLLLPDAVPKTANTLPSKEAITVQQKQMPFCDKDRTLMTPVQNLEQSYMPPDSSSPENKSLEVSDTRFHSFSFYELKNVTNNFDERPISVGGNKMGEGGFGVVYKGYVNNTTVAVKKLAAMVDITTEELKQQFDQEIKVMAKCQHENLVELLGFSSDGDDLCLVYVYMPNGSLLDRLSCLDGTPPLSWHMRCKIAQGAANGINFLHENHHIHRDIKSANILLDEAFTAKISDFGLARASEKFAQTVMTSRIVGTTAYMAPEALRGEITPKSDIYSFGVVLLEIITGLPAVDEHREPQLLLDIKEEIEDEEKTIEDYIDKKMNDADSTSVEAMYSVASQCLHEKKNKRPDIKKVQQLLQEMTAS
# Procedure: The IC50 values were determined using ^33P isotope-labeled kinase activity assay (Reaction Biology Corp) to evaluate the inhibitory ability of the tested compounds on human IRAK4.
# (§1) Buffer conditions: 20 mM Hepes (pH 7.5), 10 mM MgCl2, 1 mM EGTA, 0.02% Brij35, 0.02 mg/mL BSA, 0.1 mM Na3VO4, 2 mM DTT, 1% DMSO.
# Test procedure: At room temperature, the tested compound was dissolved in DMSO and a 10 mM solution was prepared for use. The substrate was dissolved in a newly prepared buffer solution, and the tested IRAK4 kinase was added thereto and mixed evenly. The DMSO solution dissolved with the tested compound was added to the above mixed evenly reaction solution using acoustic technique (Echo 550). After incubation for 15 minutes, ^33P-ATP was added to initiate the reaction. The reaction was carried out at room temperature for 120 minutes, and the reaction mixture was dropped on P81 ion exchange filter paper (Whatman #3698-915). The filter paper was washed repeatedly with 0.75% phosphoric acid solution, and the radioactivity of phosphorylated substrate residues on the filter paper was determined. The kinase activity data were expressed by comparing the kinase activity of the group containing the tested compound with the kinase activity of the blank group (only containing DMSO), and the IC50 value was obtained by curve fitting by Prism4 software (GraphPad), the experimental results were shown in Table 2.
# [1] = tested on: TNF-α production in THP-1 cells; test: TNF-α ELISA in LPS-stimulated THP-1 cells; format: cell-based; settings: Homo sapiens, TNF-α in supernatant, 150 ng/mL LPS, 18 hours
# Procedure: THP-1 human acute single cell leukemia cells were purchased from ATCC (Cat #TIB-202) and cultured at 37° C. in 5% CO2 incubator. The composition of medium was RPMI1640 (Gibco, Cat #22400-105), and the supplementary compositions were 10% FBS (Gibco, Cat #10091148); 1% PenStrep (Gibco, Cat #15140); 0.05 mM β-mercaptoethanol (Sigma, Cat #M6250).
# TNF-α Elisa kit was used to detect the content of TNF-α in cell culture supernatant samples. TNF-α was produced by stimulating THP-1 cells with 150 ng/mL LPS (Sigma, Cat #L6529).
# THP-1 cells cultured normally at logarithmic growth period were seeded in a 96-well plate (Corning #3599) at a certain concentration (1*10^5/100 μL) and then put into a cell incubator for incubation. After two hours, 16.7 μL of different concentrations of the compound to be tested (8*final concentration) were added and incubated in an incubator. After one hour, 16.7 μL of 1200 ng/mL LPS was added and incubated in an incubator. After 18 hours, the culture supernatant samples were collected by centrifugation, and the content of TNF-α could be detected by TNF-α Elisa kit. Finally, OD signals (OD450-OD570) were read on envision board reader.
# The OD450-OD570 signal value was converted into a percentage inhibition rate.
# Inhibition rate %=(ZPE−sample)/(ZPE−HPE)*100.
# “HPE” referred to the OD450-OD570 signal value of the control well without LPS stimulated cells, and “ZPE” referred to the OD450-OD570 signal value of the control well with LPS stimulated cells. The IC50 value of the compound was calculated by XLFit in the excel add-in.
# Y=Bottom+(Top−Bottom)/(1+(IC50/X)^HillSlope). Equation: […]
# [2] = tested on: TMD-8 human diffuse large B lymphoma cells; test: TMD-8 cell proliferation (Cell Titer Glo); format: cell-based; settings: TMD8, 72 hours
# Procedure: (§2) The tumor cell lines OCI-LY10 and TMD-8 were used to detect the effect of the compound of the disclosure on inhibiting tumor cell proliferation in vitro.
# TMD-8 human diffuse large B lymphoma cells, from Nanjing Cobioer Biotechnology Co., Ltd
# (§3) The compound was diluted with DMSO to a final concentration of 10 mM. The compound was freshly prepared and ready for use.
# (§4) a) Logarithmic growth period cells were collected, counted, resuspended with complete culture medium, the cell concentration was adjusted to an appropriate concentration (determined according to the results of cell density optimization test), inoculated on 96-well plates, and 100 μL of cell suspension was added to each well. Cells were incubated in an incubator with 37° C., 100% relative humidity and 5% CO2 for 24 hours.
# (§5) b) The compound to be tested was diluted to 50 μM with culture medium and then gradient diluted for 8 times. Cells were added with 25 μL/well. The final concentrations of the compound were from […], 3-fold gradient dilution, with a total of 9 concentration points.
# (§6) c) Cells were incubated in an incubator with 37° C., 100% relative humidity and 5% CO2 for 72 hours;
# (§7) d) 60 μL of CTG test reagent was added to the culture medium.
# (§8) e) Shaked fully and reacted in the dark for 10 min. Luminescence was measured on ENVISION and the inhibition rate was calculated.
# (§9) Cell growth inhibition rate %=[(RLUv−RLUs)/(RLUv−RLUb)]×100%
# human BTK = biological target: T2, human BTK (Homo sapiens, UniProt Q06187); test: In vitro BTK kinase activity, 33P isotope-labeled kinase assay; format: biochemical
# T2 construct: purchased Reaction Biology Corp
# Procedure: The IC50 values were determined using ^33P isotope-labeled kinase activity assay (Reaction Biology Corp) to evaluate the inhibitory ability of the tested compounds on human BTK.
# as §1
# Test procedure: At room temperature, the tested compound was dissolved in DMSO and a 10 mM solution was prepared for use. The substrate was dissolved in a newly prepared buffer solution, and the BTK kinase was added thereto and mixed evenly. The compound dissolved in DMSO was added to the kinase reaction mixture through Echo 550 (Acoustic technology; Nanoliter range). After incubation for 20 minutes at room temperature, ^33P-ATP was added to initiate the reaction. The reaction was carried out at room temperature for 2 hours, and the radioactivity of the reaction solution drop was detected by filtration-binding method with P81 ion exchange filter paper. The kinase activity data were expressed by comparing the kinase activity of the group containing the tested compound with the kinase activity of the blank group (only containing DMSO), and the IC50 value was obtained by curve fitting by Prism4 software (GraphPad), the experimental results were shown in Table 3.
# [3] = tested on: OCI-LY10 human diffuse large B lymphoma cells; test: OCI-LY10 cell proliferation (Cell Titer Glo); format: cell-based; settings: 72 hours
# Procedure: as §2
# OCI-LY10 human diffuse large B lymphoma cells, from Nanjing Cobioer Biotechnology Co., Ltd
# as §3, §4, §5, §6, §7, §8, §9
# OCI-LY3 cell line = test: OCI-LY3 cell proliferation (CTG); format: cell-based; settings: Homo sapiens, 72 hours
# Procedure: The tumor cell line OCI-LY3 was used to detect the effect of the compound of the disclosure on inhibiting tumor cell proliferation in vitro.
# The tumor cell line used in this experiment was provided by Nanjing Cobioer Biotechnology Co., Ltd. See Table 6 below for specific information.
# The OCI-LY3 cell line was cultured in the corresponding medium at 37° C. and 5% CO2, and the logarithmic growth period cells were used for experimental planking. The cells were collected and centrifuged at 800 rpm for 5 minutes, and the culture medium was re-suspended and spread in a 96-well plate. After being cultured overnight in 37° C., 5% CO2 incubator, drugs with different concentration gradients (10 μL of prepared diluent of test compound was added) were added, and incubated in 37° C., 5% CO2 incubator for 72 hours. The cell culture plate was incubated with CTG reagent at room temperature in the dark for 30 minutes and return to room temperature. CTG solution was added into the biosafety cabinet in the dark 100 μL/well, and was shaken and mixed evenly on plate shaker in the dark for 2 minutes, and incubated at room temperature in the dark for 10 minutes. The luminous value was read and recorded with Perkin Elmer Envision instrument.
# The luminous value of the blank control group was subtracted from the luminous value measured at each drug concentration, the ratio of this value to DMSO group was taken as the cell inhibition rate (%). GraphPad software was used, the logarithm of drug concentration (log drug concentration) versus inhibition rate was plotted, and the IC50 value and 95% confidence value were automatically fitted and calculated by log (inhibitor) vs. response-variable slop (four parameters) algorithm of nonlinear regression by software.
# T2 sequence (Q06187 whole entry): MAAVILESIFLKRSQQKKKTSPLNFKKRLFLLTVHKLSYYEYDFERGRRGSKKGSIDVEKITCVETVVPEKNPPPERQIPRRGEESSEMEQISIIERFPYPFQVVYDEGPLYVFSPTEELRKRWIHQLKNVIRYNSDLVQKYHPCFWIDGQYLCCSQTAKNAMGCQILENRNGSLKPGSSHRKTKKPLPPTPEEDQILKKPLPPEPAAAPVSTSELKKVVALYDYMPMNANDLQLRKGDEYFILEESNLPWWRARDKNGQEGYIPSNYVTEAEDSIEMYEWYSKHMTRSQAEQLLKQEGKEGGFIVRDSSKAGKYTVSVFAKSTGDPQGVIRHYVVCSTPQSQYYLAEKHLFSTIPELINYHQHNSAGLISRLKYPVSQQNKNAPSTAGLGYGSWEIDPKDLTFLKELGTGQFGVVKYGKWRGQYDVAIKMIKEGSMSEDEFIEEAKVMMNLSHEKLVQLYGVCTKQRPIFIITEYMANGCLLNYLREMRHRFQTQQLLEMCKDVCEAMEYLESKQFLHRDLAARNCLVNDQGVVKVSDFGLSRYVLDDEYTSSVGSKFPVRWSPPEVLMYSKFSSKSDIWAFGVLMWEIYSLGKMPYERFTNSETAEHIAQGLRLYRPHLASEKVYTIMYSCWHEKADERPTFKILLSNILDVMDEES
IC50 (human IRAK4),IC50 [1],IC50 [2],IC50 (human BTK),IC50 [3],IC50 (OCI-LY3 cell line),SMILES
1.8 nM,20 nM,10 nM,7.9 nM,29 nM,57 nM,CC(C)(O)CCc1cn2cc(NC(=O)c3coc(-c4ccnc(N)c4)n3)c(N3CCCCC3)cc2n1 [WX001]
6.6 nM,116 nM,,,125 nM,,CC(=O)Nc1cc(-c2nc(C(=O)Nc3cn4cc(CCC(C)(C)O)nc4cc3N3CCCCC3)co2)ccn1 [WX002]
0.6 nM,,,15.4 nM,,,COc1cc(-c2nc(C(=O)Nc3cn4cc(CCC(C)(C)O)nc4cc3N3CCCCC3)co2)ccn1 [WX003]
12 nM,,,,,,CN(C)c1cc(-c2nc(C(=O)Nc3cn4cc(CCC(C)(C)O)nc4cc3N3CCCCC3)co2)ccn1 [WX004]
1.5 nM,171 nM,325 nM,0.6 nM,,,CC(C)(O)CCc1cn2cc(NC(=O)c3coc(-c4ccnc5[nH]ccc45)n3)c(N3CCCCC3)cc2n1 [WX005]
1 nM,94 nM,183 nM,0.7 nM,36 nM,,CNc1cc(-c2nc(C(=O)Nc3cn4cc(CCC(C)(C)O)nc4cc3N3CCCCC3)co2)ccn1 [WX006]
0.4 nM,,,4.1 nM,,,Cc1cc(-c2nc(C(=O)Nc3cn4cc(CCC(C)(C)O)nc4cc3N3CCC4(CCOC4)CC3)co2)ccn1 [WX007]
4.3 nM,,,71 nM,,,Cc1cc(-c2nc(C(=O)Nc3cn4cc(CCC(C)(C)O)nc4cc3N3CCC4(CC3)COC4)co2)ccn1 [WX008]
2.1 nM,,,21.2 nM,,,Cc1cc(-c2nc(C(=O)Nc3cn4cc(C(C)(C)O)nc4cc3N3CCC(CO)CC3)co2)ccn1 [WX010]
4.7 nM,,28 nM,1.3 nM,6 nM,26 nM,CS(=O)(=O)CCc1cn2cc(NC(=O)c3coc(-c4ccnc(N)c4)n3)c(N3CCCCC3)cc2n1 [WX011]
0.4 nM,,,14.4 nM,20 nM,,Cc1cc(-c2nc(C(=O)Nc3cn4cc(CCS(C)(=O)=O)nc4cc3-c3ccccc3)co2)ccn1 [WX012]
2.5 nM,,40 nM,0.5 nM,18 nM,41 nM,CN(C)CCc1cn2cc(NC(=O)c3coc(-c4ccnc(N)c4)n3)c(N3CCCCC3)cc2n1 [WX014]
0.4 nM,60 nM,,5.6 nM,36 nM,,Cc1cc(-c2nc(C(=O)Nc3cn4cc(CCN(C)C)nc4cc3-c3ccccc3)co2)ccn1 [WX015]
2 nM,,6 nM,1.6 nM,3 nM,37 nM,CN(C)CCc1cn2cc(NC(=O)c3coc(-c4ccnc(N)c4)n3)c(-c3ccccc3)cc2n1 [WX016]
5.1 nM,,,,,,Cc1cc(-c2nc(C(=O)Nc3cn4cc(C(C)(C)O)nc4nc3-c3ccccc3)co2)ccn1 [WX018]
0.3 nM,,,19.8 nM,,,Cc1cc(-c2nc(C(=O)Nc3cn4cc(C(C)(C)O)nc4cc3-c3ccccn3)co2)ccn1 [WX021]
0.1 nM,,,45 nM,,,COc1cc(-c2nc(C(=O)Nc3cn4cc(C(C)(C)O)nc4cc3-c3ccccc3)co2)ccn1 [WX022]
0.1 nM,,,1 nM,14 nM,,CNc1cc(-c2nc(C(=O)Nc3cn4cc(C(C)(C)O)nc4cc3-c3ccccc3)co2)ccn1 [WX023]
0.1 nM,,,,,,Cc1cc(-c2nc(C(=O)Nc3cn4cc(CC(N)=O)nc4cc3-c3ccccc3)co2)ccn1 [WX025]
0.1 nM,,,,,,Cc1nccc(-c2nc(C(=O)Nc3cn4cc(C(C)(C)O)nc4cc3-c3ccccc3)co2)c1F [WX028]
0.1 nM,,,,48 nM,,Cc1cc(-c2nc(C(=O)Nc3cn4cc(S(C)(=O)=O)nc4cc3-c3ccccc3)co2)ccn1 [WX029]
0.9 nM,,,,,,Cc1cc(-c2nc(C(=O)Nc3cn4cc(N=S(C)(C)=O)nc4cc3-c3ccccc3)co2)ccn1 [WX032]
0.4 nM,57.1 nM,16.7 nM,,15.2 nM,42 nM,Cc1nccc(-c2nc(C(=O)Nc3cn4cc(C(C)(C)O)nc4cc3-c3ccccc3)co2)c1Cl [WX036]
0.3 nM,,,,,,Cc1cc(-c2nc(C(=O)Nc3cn4cc(CC(C)(C)O)nc4cc3-c3ccccc3)co2)ccn1 [WX038]
